Paper doi:10.1101/2020.05.21.106633v1 (bioRxiv, 2020)
Non-standard residues stand in square brackets, D forms with d. Residues, ends and D or L forms follow the SMILES beside them. *: point of attachment. FITC = O=C1OC2(c3ccc(O)cc3Oc3cc(O)ccc32)c2ccc(NC(=S)*)cc21; Ahx = NCCCCCC(=O)O

Legend:
[1] = system: GBM-6 cells; test: CellTitre-Glo cell viability assay, GBM-6; type: cell-based, human; settings: BTP-7 50 µM, 48 hrs, nwell = 3
[2] = system: GBM-6 neurospheres; test: Collagen cell invasion assay; type: cell-based, human; settings: BTP-7 50 µM, n = 3
[3] = target: T1, recombinant dg-Bcan protein (deglycosylated recombinant human brevican) (Homo sapiens, UniProt Q96GW7); test: Octet binding kinetic analysis; settings: for Rmax (maximal response in response unit): Octet steady state analysis, one site specific binding fit
T1 sequence (Q96GW7 23-911): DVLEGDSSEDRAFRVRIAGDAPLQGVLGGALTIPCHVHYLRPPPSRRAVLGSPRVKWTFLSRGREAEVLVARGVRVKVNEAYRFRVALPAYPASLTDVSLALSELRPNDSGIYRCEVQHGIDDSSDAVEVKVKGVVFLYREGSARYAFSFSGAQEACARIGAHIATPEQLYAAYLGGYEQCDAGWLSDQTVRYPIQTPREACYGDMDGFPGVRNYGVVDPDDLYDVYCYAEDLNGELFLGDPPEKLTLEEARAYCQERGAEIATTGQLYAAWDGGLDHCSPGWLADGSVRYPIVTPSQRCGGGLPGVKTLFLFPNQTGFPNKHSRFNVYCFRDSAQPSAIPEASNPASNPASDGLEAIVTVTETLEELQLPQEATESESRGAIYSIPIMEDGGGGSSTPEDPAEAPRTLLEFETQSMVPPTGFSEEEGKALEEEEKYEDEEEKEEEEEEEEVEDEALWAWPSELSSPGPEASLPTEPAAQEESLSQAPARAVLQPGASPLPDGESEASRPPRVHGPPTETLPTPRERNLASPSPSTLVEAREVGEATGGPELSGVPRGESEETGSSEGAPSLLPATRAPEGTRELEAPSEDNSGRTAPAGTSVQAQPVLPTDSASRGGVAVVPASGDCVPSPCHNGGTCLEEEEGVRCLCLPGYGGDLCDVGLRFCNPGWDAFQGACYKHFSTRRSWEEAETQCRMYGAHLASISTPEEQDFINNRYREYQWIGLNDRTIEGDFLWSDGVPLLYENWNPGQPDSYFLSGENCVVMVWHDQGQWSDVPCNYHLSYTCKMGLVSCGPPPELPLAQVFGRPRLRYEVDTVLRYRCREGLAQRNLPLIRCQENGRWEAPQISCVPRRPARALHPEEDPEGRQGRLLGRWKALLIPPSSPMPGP

Kd [3] [µM] | SMILES | effect on GBM-6 proliferation [1] | effect on GBM-6 invasion in collagen [2] | Rmax (maximal response in response unit) [3]
 | CC(C)[C@@H](NC(=O)[C@@H](Cc1c[nH]cn1)NC(=O)CNC(=O)[C@@H](Cc1c[nH]c2ccccc12)NC(=O)[C@@H](CCCCN)NC(=O)[C@H](N)[C@H](C)O)C(=O)N[C@H](CC(N)=O)C(=O)N[C@H](CCCCN)C(N)=O [BTP-7] | not affected | not affected | 0.307
 | CC[C@@H](C)[C@@H](NC(=O)[C@@H](C)NC(=O)[C@@H](CCCNC(=N)N)NC(=O)[C@@H](CCC(N)=O)NC(=O)[C@@H](CCCNC(=N)N)NC(=O)[C@@H](CCCNC(=N)N)NC(=O)[C@@H](CC(=O)O)NC(=O)[C@@H](C)N)C(N)=O [BTP-9] (H-[dA][dD][dR][dR][dQ][dR][dA][dI]-NH2; N-terminus and C-terminus assumed) |  |  | 0.338
3.8 | CC(C)[C@@H](NC(=O)[C@@H](Cc1c[nH]cn1)NC(=O)CNC(=O)[C@@H](Cc1c[nH]c2ccccc12)NC(=O)[C@@H](CCCCN)NC(=O)[C@H](N)[C@H](C)O)C(=O)N[C@H](CC(N)=O)C(=O)N[C@H](CCCCN)C(=O)NCCCCCC(=O)N[C@@H](CCCCNC(=S)Nc1ccc2c(c1)C(=O)OC21c2ccc(O)cc2Oc2cc(O)ccc21)C(N)=O [Fluorescein-conjugated BTP-7] (H-[dT][dK][dW]G[dH][dV][dN][dK][Ahx]K(FITC)-NH2) |  |  | 
